Measured values from patent US4628083A, “2-hydroxy-5-(arylazo)-benzene alkanoic acids” (Pharmacia AB, priority 1985, dated 1986).
Values joined by “and” are separate entries in the source; they are usually repeats but may differ in a detail not shown here. Equal values may be shown once.

Key:
Format in all cases: biochemical
[1] = molecular target: T1, prostaglandin-15-dehydrogenase (Homo sapiens, UniProt P15428); assay: Inhibition of prostaglandin F2α inactivation in cell-free human placenta preparation; details: for IC50: Inhibition 50 %, read-out: concentration giving 50% inhibition of the prostaglandin inactivation (converted)
T1 construct: cellfree preparations of different organs (containing prostaglandin-15-dehydrogenase); from tissue; host or cells: human placenta
T1 sequence (P15428 1-266): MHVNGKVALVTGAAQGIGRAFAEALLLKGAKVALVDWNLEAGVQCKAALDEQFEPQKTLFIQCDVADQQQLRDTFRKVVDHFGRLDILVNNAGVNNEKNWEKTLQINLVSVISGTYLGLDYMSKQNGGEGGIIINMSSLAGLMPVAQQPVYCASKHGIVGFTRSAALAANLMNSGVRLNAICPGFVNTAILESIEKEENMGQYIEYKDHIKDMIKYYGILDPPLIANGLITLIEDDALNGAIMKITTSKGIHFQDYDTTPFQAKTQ
Method: (§1) Radioactive prostaglandin F2α was incubated with cellfree preparations of different organs (containing prostaglandin-15-dehydrogenase) according to Hoult and Moore, British Journal of Pharmacology, Vol. 61 (1977), p. 615. After a suitable time the prostaglandins were extracted and separated by chromatography. Then the amount of remaining prostaglandin F2α was compared with the amounts of metabolites. The inhibiting effect was obtained by the addition of the compounds according to the invention during the incubation and comparison with control experiments without such addition. The results may be represented either as a concentration giving 50% inhibition of the prostaglandin inactivation, or as an inhibition in percent at a certain concentration of the studied compound. In the following table the results for some compounds according to the invention are shown compared to the known drug sulfasalazine.

[2] = molecular target: T2, prostaglandin-15-dehydrogenase (Rattus norvegicus, UniProt O08699); assay: Inhibition of prostaglandin F2α inactivation in cell-free rat organ preparations; details: for inhibition at 2 µM: 2 μM (0,82 μg/ml); for inhibition at 50 µM: 50 μM (A 19,9 μg/ml; C 12,8 μg/ml)
T2 construct: cellfree preparations of different organs (containing prostaglandin-15-dehydrogenase); from tissue
T2 sequence (O08699 1-266): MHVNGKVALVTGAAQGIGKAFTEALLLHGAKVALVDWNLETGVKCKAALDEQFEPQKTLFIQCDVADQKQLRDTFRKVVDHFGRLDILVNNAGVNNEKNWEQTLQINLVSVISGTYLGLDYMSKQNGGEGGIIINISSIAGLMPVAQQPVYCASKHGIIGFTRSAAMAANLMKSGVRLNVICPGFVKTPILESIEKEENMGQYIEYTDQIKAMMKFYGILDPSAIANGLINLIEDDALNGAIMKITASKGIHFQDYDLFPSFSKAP
Method: as §1

[3] = molecular target: T3, prostaglandin-15-dehydrogenase (Cavia porcellus, UniProt P70684); assay: Inhibition of prostaglandin F2α inactivation in cell-free guinea pig organ preparations; details: for inhibition at 2 µM: 2 μM (0,82 μg/ml); for inhibition at 50 µM: 50 μM (B 20,6 μg/ml; C 12,8 μg/ml)
T3 construct: cellfree preparations of different organs (containing prostaglandin-15-dehydrogenase); from tissue
T3 sequence (P70684 1-265): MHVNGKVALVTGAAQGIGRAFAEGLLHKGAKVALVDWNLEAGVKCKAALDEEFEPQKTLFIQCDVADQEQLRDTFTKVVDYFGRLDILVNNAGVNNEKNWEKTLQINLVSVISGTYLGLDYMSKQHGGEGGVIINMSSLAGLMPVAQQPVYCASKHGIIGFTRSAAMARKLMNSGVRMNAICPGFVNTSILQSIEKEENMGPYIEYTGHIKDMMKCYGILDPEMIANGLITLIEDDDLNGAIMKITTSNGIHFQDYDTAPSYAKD
Method: as §1

[4] = relative to compound A (sulfasalazine)

inhibition at 50 µM ([1]; Human placenta, 50 μM (20,6 μg/ml)) [%] | IC50 ([1]; Human placenta) | times as active as the known compound A [1, 4] [times] | inhibition at 2 µM ([2]; Rat colon) [%] | inhibition at 2 µM ([2]; Rat kidney) [%] | inhibition at 2 µM ([2]; Rat lung) [%] | inhibition at 2 µM ([2]; Rat stomach) [%] | inhibition at 2 µM ([3]; Guinea pig colon) [%] | inhibition at 2 µM ([3]; Guinea pig duodenum) [%] | inhibition at 2 µM ([3]; Guinea pig kidney) [%] | inhibition at 50 µM ([3]; Guinea pig kidney) [%] | inhibition at 50 µM ([2]; Rat colon) [%] | SMILES | activity compared with compound A [2, 4]
87.5 | 1.9 µM and 1.89 µM | 50 | 53.3 | 94.1 | 85.2 | 67.2 | 58.7 | 68.3 | 53.8 | 65.9 | – | O=C(O)Cc1cc(N=Nc2ccc(S(=O)(=O)Nc3ccccn3)cc2)ccc1O [B, 2-hydroxy-5-[4-[[(2-pyridinyl)amino]sulfonyl]phenylazo]benzeneacetic acid] | –
– | 95 µM and 95.4 µM | – | – | – | – | – | – | – | – | – | 47.8 | O=C(O)c1cc(/N=N/c2ccc(S(=O)(=O)Nc3ccccn3)cc2)ccc1O [A, sulfasalazine, reference compound] | –
– | – | – | – | – | – | – | – | – | – | 45.4 | 71.3 | O=C(O)Cc1cc(N=Nc2ccccc2)ccc1O [C, 2-hydroxy-5-phenylazo-benzeneacetic acid] | significantly more active than compound A
